Laboratory results as given in patent US10226476B2, “Method of attenuating reactions to skin irritants” (Dana-Farber Cancer Institute, Inc., priority 2001, dated 2019).
Entries after “also recorded” stand apart in the source; their conditions may differ.

System: oxazolone-induced contact hypersensitivity in mice
Test: oxazolone-induced contact hypersensitivity (hapten-specific increase in ear thickness at 24 hours)
Type: in vivo, mouse
Conditions: for effect on CSH/CHS response to oxazolone, systemic administration: systemic (i.p.) administration
Excerpt: 8-12 week old female C57B1/6 mice were purchased from Taconic Farms. Inc. (Germantown, N.Y.). The CD1d-null allele (generated in a 129×C57B1/6 founder (25) (26) was backcrossed 7 generations into the C57B1/6 strain. (15) Homozygous CD1d deficient mice were obtained from littermate pairings and used to generate heterozygote CD1d deficient and wild type controls. Breeding pairs of mice deficient for CD1d on the BALB/c background were purchased from Jackson Labs (Bar Harbor, Me.). The C57B1/6 and BALB/c J 281 null mice were established by specific deletion of the J 281 gene segment (27) (28). All mouse experiments were approved and conducted under IACUC guidelines.
Mice at least seven weeks of age were sensitized epicutaneously on day 0 with 70 μl of 4% 4-ethoxymethylene-2-phenyl-2-oxazolin-5-one (oxazolone, Sigma, St. Louis, Mo.) in acetone/olive oil (4/1) and challenged five days later on the right ear with 20 μl of 0.5% oxazolone or carrier only on the left ear. The hapten-specific increase in ear thickness at 24 hours was determined with a micrometer.
Mice received a series of 5 intraperitoneal injections of either 2 μg of αManCer (2 μg i.p. diluted in a solution of phosphate buffered saline and 0.5% Tween-20 every other day, starting 3 days prior to skin sensitization and continuing through to re-challenge.
Significant differences between groups were evaluated with a Mann-Whitney test, or where appropriate, a two tailed Student's t test. Mean differences were considered significant when p<0.05.

Compound | inhibition of CSH by control substances (specificity) (specificity controls for DPPE-PEG, FIG. 2 and data not shown, result in words) | effect on CSH/CHS response to oxazolone, systemic administration (result in words) | inhibition of oxazolone-induced CSH in MHC-unrelated mouse strains (topical 100 mg/ml, SWR, C57B1/10, DBA, BALB/c mice, FIG. 5, result in words) | Half-maximal inhibition of CSH (topical concentration) (topical, applied with 4% oxazolone at sensitization, wild type C57B1/6 mice, FIG. 4A) [mg/mL] | inhibition of contact hypersensitivity, inhibitor present at both phases (topical, during both priming and recall, FIG. 4B, result in words) | inhibition of contact hypersensitivity, inhibitor present in one phase only (topical, only during priming or only during recall, FIG. 4B, result in words) | inhibition of oxazolone-induced contact hypersensitivity, topical at sensitization (topical, with oxazolone on day 0 (100 mg/ml, or increasing doses 0-100 mg/ml), FIG. 3, 4A, result in words)
CCCCCCCCCCCCCCCC(=O)O [palmitic acid, reference compound] | neither palmitic acid, nor PEG alone were effective inhibitors of CSH | – | – | – | – | – | –
1,2-Dipalmitoyl-sn-Glycero-3-Phosphoethanolamine-N-[Poly(ethylene glycol) 2000] [DPPE-PEG] | – | inhibited CHS as effectively as α-ManCer | effective inhibitor in all strains tested | 25 | maximally inhibited | also inhibited, but to a lesser extent | inhibits oxazolone-induced contact hypersensitivity; also recorded: inhibit oxazolone-induced hypersensitivity in a dose-dependent manner
CCCCCCCCCCCCCCCCCCCCCCCCCC(=O)N[C@@H](COC1O[C@H](CO)[C@H](O)[C@H](O)[C@H]1O)[C@H](O)[C@H](O)CCCCCCCCCCCCCC (stereo partly drawn) [α-GalCer, (2S,3S,4R)-1-O-(-D-galactopyranosyl)-2-(N-hexacosanoylamino)-1,3,4-octadecanetriol, reference compound] | – | did not alter the CSH response | – | – | – | – | –
